According to patent US12122760B2, “Compound, composition, and use thereof in preparation of drug” (CHANGSHA ZEDA MEDICAL TECH. CO., LTD, priority 2019, dated 2024):

Key:
AR-LBD (GST) = biological target: T1, AR-LBD (GST) (Rattus norvegicus, UniProt P15207); assay: PolarScreen Androgen Receptor (AR) Competitor Assay, binding experiment of the antagonist and AR; settings: fluorescence polarization, incubated 6 hours, FIG. 1; read-out: IC50 of the drug and AR-LBD binding
T1 construct: purchased Life technologies company, USA
T1 sequence (P15207 651-882 limits assumed): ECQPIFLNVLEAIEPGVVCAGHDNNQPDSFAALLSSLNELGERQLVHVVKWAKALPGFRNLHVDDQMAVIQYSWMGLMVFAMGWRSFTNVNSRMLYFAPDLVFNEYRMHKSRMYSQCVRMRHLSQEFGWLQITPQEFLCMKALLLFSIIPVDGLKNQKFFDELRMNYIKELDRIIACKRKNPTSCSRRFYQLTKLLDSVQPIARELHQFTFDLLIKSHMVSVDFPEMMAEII
Excerpt: PolarScreen™ Androgen Receptor (AR) Competitor Assay, Green kit (Life technologies company, USA) is used to test the affinity of the antagonist to AR-LBD (GST). The mechanism of the experiment is that the AR-LBD is combined with a small molecule fluormone tracer (Fluormone Tracer), and an antagonist added can competitively bind with AR-LBD so as to replace the fluormone tracer, and the replaced fluormone tracer […], and the value of the fluorescence polarization is inversely proportional to the number of the replaced tracers.
A specific process is as follows: the drug is dissolved into 500 uM by using DMSO, and then diluted to 244 nM by double dilution concentration gradients in a 96-well plate. A 10 uL of a reaction system AR-LBD+Tracer is configured in a 384-well plate and 10 uL of the drug solution is added. The positive control is 10 uL of AR-LBD+Tracer with 10 uL of DHT added. The 384-well plate is wrapped by tin foil and incubated for 6 hours in the dark. The fluorescence polarization value is read on a multi-function microplate reader. Graphpad Prism software is used to draw a drug concentration as an abscissa, and the fluorescence polarization value is used as an ordinate for drawing a curve. […] Herein, the DHT, MDV3100, and ARN509 are positive controls.

androgen receptor (AR) = biological target: T2, androgen receptor (AR) (Homo sapiens, UniProt P10275); assay: Luciferase reporter gene experiment (MMTV-LUC + pSV-AR in 293T cells); type: cell-based; settings: 10 nM DHT, FIG. 2
T2 construct: expressed in transfected cells; host or cells: 293T cells
T2 sequence (P10275 1-920): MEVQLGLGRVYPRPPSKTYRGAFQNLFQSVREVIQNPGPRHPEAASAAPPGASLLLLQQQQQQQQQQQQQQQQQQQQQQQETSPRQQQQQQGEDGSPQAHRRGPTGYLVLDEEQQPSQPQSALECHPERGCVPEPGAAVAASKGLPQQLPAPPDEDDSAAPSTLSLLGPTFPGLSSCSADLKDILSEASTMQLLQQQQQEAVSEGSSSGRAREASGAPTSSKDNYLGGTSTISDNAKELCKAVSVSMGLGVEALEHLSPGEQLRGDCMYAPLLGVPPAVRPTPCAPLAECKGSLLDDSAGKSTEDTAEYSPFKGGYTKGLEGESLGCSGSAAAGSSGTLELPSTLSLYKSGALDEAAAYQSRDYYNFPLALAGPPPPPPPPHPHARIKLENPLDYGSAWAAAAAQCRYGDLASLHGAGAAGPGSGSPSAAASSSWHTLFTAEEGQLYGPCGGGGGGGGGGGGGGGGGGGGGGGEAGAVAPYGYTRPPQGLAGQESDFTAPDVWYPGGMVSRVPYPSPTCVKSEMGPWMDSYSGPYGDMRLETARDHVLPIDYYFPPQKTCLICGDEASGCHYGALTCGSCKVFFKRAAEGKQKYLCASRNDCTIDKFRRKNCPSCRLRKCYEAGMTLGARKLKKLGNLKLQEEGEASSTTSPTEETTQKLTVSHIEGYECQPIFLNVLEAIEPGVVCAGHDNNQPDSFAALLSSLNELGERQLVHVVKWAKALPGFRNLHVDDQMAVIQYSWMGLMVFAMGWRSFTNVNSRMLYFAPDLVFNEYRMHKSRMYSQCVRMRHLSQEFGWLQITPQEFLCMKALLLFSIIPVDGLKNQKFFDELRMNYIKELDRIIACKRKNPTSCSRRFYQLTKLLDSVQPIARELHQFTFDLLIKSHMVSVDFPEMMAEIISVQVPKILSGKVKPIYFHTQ
Experimental: 293T cells are cultured in a 96-well plate. AR plasmids and luciferase genes with AR target promoters are co-transfected in the 293T cells. AR activates the target promoters to express luciferase, and the expression level of the luciferase is directly proportional to AR activation. Adding DHT to the cells can activate AR and express the luciferase, thus enhancing fluorescence signal detection. By detecting the fluorescent signal, it can be examined whether an added drug has AR antagonist activity.
The luciferase reporter gene plasmid MMTV-LUC containing the androgen receptor (AR) target promoters and the plasmid pSV-AR expressing the androgen receptor (AR) are constructed. The 293T cells are inoculated in a 96-well plate, wherein each well containing 1×10^4 cells. The cells are incubated overnight to stick to the wall. On the second day, Lipofectamine® 3000 (Life technologies, USA) is used to transfect the plasmid into the cells. Each well is added with 180 ng of MMTV-LUC plasmid and 20 ng of pSV-AR plasmid. On the third day, each well is added with 10 nM of the DHT and the drugs of different concentrations of 1 nM, 10 nM, 100 nM, 1 uM, 10 uM, 25 uM, 50 uM respectively. The control is 10 nM of the DHT. On the fifth day, a luciferase reporter gene detection kit (Biyuntian company, China) is used to process the cells. 100 uL of cell lysate is added to the 96-well plate, and lyse for 20 min. Then centrifuging is performed at 4 degrees and 10000 g for 3 min. 50 uL of supernatant is taken and 100 uL of a luciferase detection reagent is added. After mixing, chemiluminescence is immediately detected on the multi-functional microplate reader. Graphpad Prism software is used to draw a curve by using the drug concentration as an abscissa and using drug fluorescence value/positive control fluorescence value as an ordinate. Herein MDV3100 is the positive control.

[1] = system: Histone deacetylase (HDAC); assay: HDAC inhibitory activity: Kac-tubulin Western Blot in VCaP cells; type: cell-based; settings: 10 uM drug, 24 h, FIG. 4
Experimental: (§1) The VCap cells are cultured in the 6-well plate. After treating the VCap cells with the drugs for 24 hours, acetylation levels of the tubulin in the cytoplasm and the H3 protein in the nucleus are examined by the western blot. An experiment process is as follows:
The VCaP cells are spread in the 6-well plate. 5×10^5 cells are inoculated per well, and incubated overnight to make the cells stick to a wall. On the second day, 10 uM of the drug is added per well. After being incubated for 24 h, the cells are collected, and lysed to extract the cell total protein. The Western Blot method is used to detect the expression levels of Kac-tubilin (localized cytoplasm) in the cells after treating with the different drugs.

[2] = system: Histone deacetylase (HDAC); assay: HDAC inhibitory activity: Kac-H3 Western Blot in VCaP cells; type: cell-based; settings: 10 uM drug, 24 h, FIG. 5
Experimental: as §1
The VCaP cells are spread in the 6-well plate. 5×10^5 cells are inoculated per well, and incubated overnight to make the cells stick to a wall. Then 10 uM of the drug is added to each well. The cells are collected after being incubated for 24 h. The EpiQuik Total Histone Extraction kit (Epigentek, USA) is used to extract the histones, and the Western Blot method is used to detect expression levels of Kac-H3 (localized cell nucleus) in the cells after adding the different drugs.

VCaP cells = assay: Inhibiting effect on VCaP cell proliferation (MTS); type: cell-based; settings: 4 days treatment, FIG. 6; for cell proliferation inhibitory effect compared with positive control drug MDV3100: VCaP cells
Experimental: Androgen-sensitive prostate cancer cell (VCaP cells) are cultured in a 96-well plate. The VCaP cells are able to proliferate in a medium supplemented with 10 nM of the DHT. After treating the cells with the drugs for 4 days, we measure the effects of the drugs on the proliferation of the prostate cancer cells.
The VCaP cells are cultured by using 5% CSS and 1640 medium without phenol red, and inoculated in the 96-well plate. 1×10^4 cells are added to each well, and incubated overnight to make the cells stick to a wall. Different concentrations of the drugs are added on the second day. After treating the cells with the drugs for 4 days, cell viability is measured by the MTS kit (Promega, USA). To each well, 10% of an MTS reagent is added, and incubation continued for 2 hours. The absorbance value at […] is then measured by the multi-functional microplate reader. The Graphpad Prism software is used to draw a curve by using the drug concentration as an abscissa and using the absorbance value of the drug treatment/the absorbance value of the blank treatment cell as an ordinate.

**Q.** `CC1(C)C(=O)N(c2ccc(C#N)c(C(F)(F)F)c2)C(=S)N1c1ccc(C(=O)NO)c(F)c1` [Zeta 32, 4-(3-(4-cyano-3-(trifluoromethyl)phenyl)-5,5-dimethyl-4-oxo-2-thioimidazolidine-1-yl)-2-fluoro-N-hydroxybenzamide] was tested. Which IC50 (AR-LBD (GST)) did it give?
**A.** 25.1 µM

**Q.** And the “antagonist effect on the AR, antagonistic ability from high to low” value (from here on “antagonist effect on the AR”) (androgen receptor (AR))?
**A.** Zeta32>Zeta55>Zeta34>Zeta57>Zeta33

**Q.** What about the “acetylation of the tubulin in the cytoplasm (HDAC inhibitory activity)” value [1] of the same compound?
**A.** superior

**Q.** And the “H3 acetylation in the nucleus (HDAC inhibitory activity)” value [2]?
**A.** superior

**Q.** What about the “inhibitory effect on the VCap cell proliferation, from high to low” value (from here on “inhibitory effect … to low”) (VCaP cells) of the same compound?
**A.** Zeta55>Zeta32>Zeta33>Zeta34>Zeta57

**Q.** And the “cell proliferation inhibitory effect compared with positive control drug MDV3100” value (VCaP cells)?
**A.** better than that of the positive control drug MDV3100

**Q.** For `CC1(C)C(=O)N(c2cnc(C#N)c(C(F)(F)F)c2)C(=S)N1c1ccc(C(=O)NO)c(F)c1` [Zeta 33, 4-(3-(6-cyano-5-(trifluoromethyl)pyridin-3-yl)-5,5-dimethyl-4-oxo-2-thioimidazolidine-1-yl)-2-fluoro-N-hydroxybenzamide], which IC50 (AR-LBD (GST)) is on record?
**A.** 27.5 µM

**Q.** And the “antagonist effect on the AR” value (androgen receptor (AR))?
**A.** Zeta32>Zeta55>Zeta34>Zeta57>Zeta33

**Q.** What about the “inhibitory effect … to low” value (VCaP cells) of the same compound?
**A.** Zeta55>Zeta32>Zeta33>Zeta34>Zeta57

**Q.** And the “cell proliferation inhibitory effect compared with positive control drug MDV3100” value (VCaP cells)?
**A.** better than that of the positive control drug MDV3100

**Q.** Which results are given for `CC1(C)C(=O)N(c2ccc(C#N)c(Cl)c2)C(=S)N1c1ccc(C(=O)NO)c(F)c1` [Zeta 34, 4-(3-(3-chloro-4-cyanophenyl)-5,5-dimethyl-4-oxo-2-thioimidazolidine-1-yl)-2-fluoro-N-hydroxybenzamide]?
**A.** antagonist effect on the AR, antagonistic ability from high to low (androgen receptor (AR)): Zeta32>Zeta55>Zeta34>Zeta57>Zeta33; H3 acetylation in the nucleus (HDAC inhibitory activity) [2]: superior; inhibitory effect on the VCap cell proliferation, from high to low (VCaP cells): Zeta55>Zeta32>Zeta33>Zeta34>Zeta57

**Q.** `N#Cc1ncc(N2C(=O)C3(CCC3)N(c3ccc(C(=O)NO)c(F)c3)C2=S)cc1C(F)(F)F` [Zeta 57, 4-(7-(6-cyano-5-(trifluoromethyl)pyridin-3-yl)-8-oxo-6-thio-5,7-diazaspiro[3.4]octane-5-yl)-2-fluoro-N-hydroxybenzamide] was tested. Which “antagonist effect on the AR” value (androgen receptor (AR)) did it give?
**A.** Zeta32>Zeta55>Zeta34>Zeta57>Zeta33

**Q.** What about the “H3 acetylation in the nucleus (HDAC inhibitory activity)” value [2] of the same compound?
**A.** superior

**Q.** What about the “inhibitory effect … to low” value (VCaP cells) of the same compound?
**A.** Zeta55>Zeta32>Zeta33>Zeta34>Zeta57
